Results taken from the METLIN SMRT retention time set (Domingo-Almenara et al. 2019).

Experiment: gradient 5% acetonitrile 3 min, to 50% in 2 min, to 85% in 15 min, held 3 min, 100 µL/min
Details: column: Zorbax Extend-C18 2.1 x 50 mm; eluents: water / acetonitrile, 0.1% formic acid
Procedure, shortened: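 Values are retention times taken from adduct peaks that software picked and an analyst inspected. The pure standards were run as mixtures of ~100 molecules on HPLC linked to a quadrupole time-of-flight mass spectrometer, in positive and negative ionization mode. A Zorbax Extend-C18 column (2.1 × 50 mm, 1.8 μm) was used at 100 μL/min with water and acetonitrile, each including 0.1% formic acid.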

With `CCN(CC)C(=O)c1cc(=O)[nH]c2c(C)cccc12` the RP-LC retention time was 657 s.
Compound `CCN1c2ccccc2C(=O)NC12CCN(C(=O)NCCc1ccccc1)CC2` has an RP-LC retention time of 773 s.
Work on `CCC(C)NC(=O)C1CCN(c2cnc(N3CCN(CC)CC3)nc2)CC1` (stereo not drawn) yielded an RP-LC retention time of 575 s.
Compound `CSc1ccccc1NS(=O)(=O)c1cc2c(s1)CCN(C(=O)C1CC1)C2` has an RP-LC retention time of 851 s.
With `Cc1ccc2c(Nc3cc(F)ccc3F)c(C(=O)N3CCCC3)cnc2n1` the RP-LC retention time was 584 s.
Work on `Cc1ccc(Cl)cc1NC(=O)C1CCCN(c2nnc(C)c3c(C)n(-c4ccccc4)nc23)C1` (stereo not drawn) yielded an RP-LC retention time of 802 s.
`CCc1ccc(-c2ccc(=O)n(CCc3nc(-c4ccc5c(c4)OCO5)no3)n2)cc1` gave an RP-LC retention time of 1070 s.
Work on `O=C(NCCC1=CCCCC1)C(=O)NCC1CCN(Cc2ccccc2)CC1` yielded an RP-LC retention time of 593 s.
With `Cc1ccc(NS(=O)(=O)c2cc(-c3[nH]ncc3C(=O)N3CCCCC3)oc2C)c(C)c1` the RP-LC retention time was 791 s.
Work on `CCCN(CCC)S(=O)(=O)c1ccc(C(=O)Nc2nc(-c3ccc(F)cc3)cs2)cc1` yielded an RP-LC retention time of 1240 s.
For `CCOCCCNC(=O)N1CCN(Cc2nc3cccnc3n2-c2cc(C)cc(C)c2)CC1`, the RP-LC retention time was 653 s.
Work on `COc1ccc2cccc(NC(=O)c3ccsc3)c2n1` yielded an RP-LC retention time of 1020 s.
In the case of `COc1ccc(Cc2nc3nccc(-c4ccc(OC)cc4)n3n2)cc1`, the RP-LC retention time is reported as 878 s.
In the case of `Cc1ccc2[nH]cc(CCN3CC(C(=O)NCc4ccccc4Cl)CC3=O)c2c1` (stereo not drawn), the RP-LC retention time is reported as 846 s.
`Cc1ccc(-c2csc(NC(=O)COc3ccc(C)cc3Br)n2)cc1` showed an RP-LC retention time of 1290 s.
For `CCOC(=O)C1CCCN(Cc2nc(-c3cc(OC)c(OC)c(OC)c3)no2)C1` (stereo not drawn), the RP-LC retention time was 774 s.
With `COc1cccc(CNC(=O)Cn2c(=O)c3cc(-c4ccco4)nn3c3ncccc32)c1` the RP-LC retention time was 771 s.
Compound `COc1ccc(C2Cn3cnc(C(=O)N4CCC(C(=O)NCc5ccco5)CC4)c3CO2)cc1` (stereo not drawn) has an RP-LC retention time of 698 s.
Work on `Cc1ccc2c(Nc3cc(F)ccc3F)c(C(=O)OC(C)C)cnc2n1` yielded an RP-LC retention time of 771 s.
For `Cc1cc(NC(=O)c2ccc(=O)n(C)n2)no1`, the RP-LC retention time was 598 s.
Compound `O=C(CN1C(=O)C2CCCCN2c2ccc(S(=O)(=O)N3CCCC3)cc21)NCCc1ccco1` (stereo not drawn) has an RP-LC retention time of 885 s.
Compound `CCOc1ccc(N2CC(C)Cn3c2nc2c3c(=O)n(C)c(=O)n2C)cc1` (stereo not drawn) has an RP-LC retention time of 831 s.
`O=C1CCCc2cc(S(=O)(=O)N3CCN(c4cccc(C(F)(F)F)c4)CC3)ccc2N1` showed an RP-LC retention time of 980 s.
With `Cc1ccc(OCC(=O)Nc2cc3c(cc2C)n(C)c(=O)n3C)cc1` the RP-LC retention time was 980 s.
Work on `CCn1ncc(NC(=O)Cc2ccc(Cl)cc2)c(N2CCOCC2)c1=O` yielded an RP-LC retention time of 836 s.
In the case of `O=C(C1CCN(S(=O)(=O)N2CCCC2)CC1)N1CCN(Cc2noc3ccccc23)CC1`, the RP-LC retention time is reported as 671 s.
`Cc1ccc(OCC(=O)N(Cc2ccc(Br)o2)C2CCS(=O)(=O)C2)cc1C` (stereo not drawn) gave an RP-LC retention time of 996 s.
Compound `CCN(CC)c1nc(C(=O)NCCN2CCOCC2)nc2nc(C)cc(C)c12` has an RP-LC retention time of 558 s.
Compound `CCc1ccc(N2C(=O)C3N=NN(Cc4nc(-c5ccccc5Cl)no4)C3C2=O)cc1` (stereo not drawn) has an RP-LC retention time of 1060 s.
With `O=C(NCCOc1cc(N2CCCC2)ncn1)NCc1ccccc1` the RP-LC retention time was 575 s.
For `Cc1ccc(CNC(=O)c2nnc(-c3ccc(S(=O)(=O)N4CCCCC4)cc3)o2)cc1`, the RP-LC retention time was 1020 s.
For `c1ccc(-c2noc(-c3ccccc3OC3CCNC3)n2)cc1` (stereo not drawn), the RP-LC retention time was 684 s.
With `CSc1ccccc1-c1nnc(NC(=O)c2cc(Cl)sc2Cl)o1` the RP-LC retention time was 937 s.
For `COCc1cc(=O)n(CC(=O)NCc2ccc(F)cc2F)c(N)n1`, the RP-LC retention time was 603 s.
`Cc1nc2cc(-c3noc(-c4ccc(Br)cc4)n3)ccc2n(C)c1=O` showed an RP-LC retention time of 1180 s.
For `COc1ccc(-c2noc(CN3N=NC4C(=O)N(c5ccc6c(c5)CCC6)C(=O)C43)n2)c(OC)c1` (stereo not drawn), the RP-LC retention time was 959 s.
In the case of `Cc1cccc2c(=O)n(C3CCN(S(=O)(=O)c4ccc(F)cc4F)CC3)cnc12`, the RP-LC retention time is reported as 904 s.
`Cc1ccc(C)c(-c2csc(Cc3nc(-c4ccc(F)cc4)no3)n2)c1` showed an RP-LC retention time of 1300 s.
`COc1cc(S(=O)(=O)NC2CC(C)(C)NC(C)(C)C2)ccc1F` gave an RP-LC retention time of 553 s.
Compound `Cc1c(C(=O)Nc2cc(=O)n(C)c(=O)n2C)cccc1[N+](=O)[O-]` has an RP-LC retention time of 652 s.
`COCCCNC(=O)NCc1ccc2c(c1)N(C(=O)c1ccccc1)CC2` showed an RP-LC retention time of 742 s.
For `O=C(Cc1cccc(C(F)(F)F)c1)Nc1cccn2c(C3CCC3)nnc12`, the RP-LC retention time was 905 s.
With `CCCC(C)C(=O)NC1CCN(C2=NS(=O)(=O)C(c3ccc(F)cc3)=C2C)CC1` (stereo not drawn) the RP-LC retention time was 856 s.
`COc1ccc(NC(=O)NC(C)C(=O)N2CCc3ccccc32)c(OC)c1` (stereo not drawn) gave an RP-LC retention time of 859 s.
In the case of `CCOc1ccc([C@H]2N(c3cc(C)on3)C(=O)[C@@H]3CCCN32)cc1`, the RP-LC retention time is reported as 743 s.
Compound `CCOc1ccc(C(=O)N2CCC3(CC2)NC(=O)c2ccc(Cl)cc2N3)cc1` has an RP-LC retention time of 768 s.
`CCOC(=O)c1c(C)oc2nc(C)nc(Nc3ccc(OCC)cc3)c12` gave an RP-LC retention time of 1360 s.
With `Cc1cccc(C(=O)NC2CCN(c3nnc4ccccn34)CC2)c1` the RP-LC retention time was 645 s.
For `O=C(c1ccc(-c2cccnc2)nc1)N1CCN(c2ccc(F)cc2)CC1`, the RP-LC retention time was 671 s.
With `COc1ccc(C(C)NC(=O)CCc2nnc3c4cc(-c5ccc(F)cc5)nn4ccn23)cc1OC` (stereo not drawn) the RP-LC retention time was 722 s.
In the case of `CCCn1cc(C(=O)NCc2cccc(C)c2)c(S(=O)(=O)N2CCC(C)CC2)n1`, the RP-LC retention time is reported as 1130 s.
For `COc1c(C(=O)N2CCN(CC(C)C)CC2)sc2cc(Cl)ccc12`, the RP-LC retention time was 697 s.
Work on `CS(=O)(=O)N1CCC(OC2CCN(C(=O)Nc3cccc(F)c3)CC2)CC1` yielded an RP-LC retention time of 720 s.
Work on `CCN1C(=O)CCc2cc(NC(=O)Cc3ccc(OC)c(Cl)c3)ccc21` yielded an RP-LC retention time of 798 s.
In the case of `CCOc1ccc(NC(=O)C2CC(=O)N(CCc3c[nH]c4ccc(Cl)cc34)C2)cc1` (stereo not drawn), the RP-LC retention time is reported as 870 s.
Compound `O=C(CCCn1nc(-c2ccccc2)c2cc(Cl)ccc21)N1CCN(c2ccccn2)CC1` has an RP-LC retention time of 764 s.
Work on `CCCn1c(=O)sc2cc(S(=O)(=O)N3CCC(C(=O)Nc4ccc(F)c(F)c4)CC3)ccc21` yielded an RP-LC retention time of 1030 s.
In the case of `CN1CCC(NC(=O)C2CCN(c3nc4ccc(-c5ccsc5)nc4s3)CC2)CC1`, the RP-LC retention time is reported as 640 s.
In the case of `Cn1cc(S(=O)(=O)N2CCCCC2)cc1C(=O)Nc1ccc2c(c1)OCCO2`, the RP-LC retention time is reported as 917 s.
`CCCc1ccc(S(=O)(=O)N2CCC3(CCC(CN4CCN(C)CC4)O3)CC2)cc1` (stereo not drawn) showed an RP-LC retention time of 654 s.
In the case of `O=C(NCC1CCCO1)c1cccc(Nc2c(-c3ccc(Cl)cc3)nc3cnccn23)c1` (stereo not drawn), the RP-LC retention time is reported as 753 s.
`O=C1CC(c2nc(-c3ccc4c(c3)OCO4)no2)CN1c1ccc(F)cc1` (stereo not drawn) gave an RP-LC retention time of 923 s.
`O=C(NCCc1ccco1)c1ccc2ccnc(N3CCN(c4ccccc4)CC3)c2c1` showed an RP-LC retention time of 772 s.
`CCc1cc(N2CCN(C(=O)COc3ccc(OC)cc3)CC2)nc2nnc(C)n12` showed an RP-LC retention time of 613 s.
`CC(=O)Nc1nc2ccc(CC(=O)Nc3ccc(F)cc3)cc2s1` gave an RP-LC retention time of 714 s.
`O=S(=O)(c1ccc2nncn2c1)N(Cc1ccccc1)c1cccc(F)c1` showed an RP-LC retention time of 851 s.
For `COc1cccc(-c2nnc(Cc3nc(-c4ccc(Cl)cc4)no3)o2)c1`, the RP-LC retention time was 1100 s.
For `OC[C@H]1O[C@@H](n2cnc3c(NC4CCCCC4)ncnc32)[C@H](O)[C@@H]1O`, the RP-LC retention time was 656 s.
Work on `c1ccc2c(CCNc3nc(N4CCCC4)c4n[nH]nc4n3)c[nH]c2c1` yielded an RP-LC retention time of 621 s.
`CCN(Cc1ccccc1)C(=O)c1cn2cc(Cl)ccc2n1` showed an RP-LC retention time of 860 s.
`O=C(CN1CCN(Cc2ccccc2Cl)CC1)Nc1nc(-c2ccccc2)cs1` gave an RP-LC retention time of 747 s.
In the case of `CCOc1ccc(C2Cn3nnc(-c4nc(C)no4)c3CO2)cc1` (stereo not drawn), the RP-LC retention time is reported as 917 s.
For `CC(C)CN1CCCn2ccnc2C1C1CCN(C(=O)C(C)C)CC1` (stereo not drawn), the RP-LC retention time was 587 s.
Compound `Cc1nc(-c2cnccn2)nc2c1CCC(=O)N2CCC1=CCCCC1` has an RP-LC retention time of 876 s.
`COCc1nc2ccccc2n1CC(=O)N(c1ccccc1)C(C)C` gave an RP-LC retention time of 707 s.
Compound `CCOc1ncccc1CNC(=O)CNC(C)=O` has an RP-LC retention time of 568 s.
For `COc1c(C=O)c2c(c(OC)c1OC)-c1ccc(OC)c(=O)cc1[C@@H](NC(C)=O)CC2`, the RP-LC retention time was 725 s.
Work on `COc1ccc(CNC(=O)c2nsc(C(=O)NCCc3ccc(OC)c(OC)c3)c2N)cc1` yielded an RP-LC retention time of 922 s.
`O=C(Nc1ccc2cn[nH]c2c1)C1CC1` showed an RP-LC retention time of 608 s.
Compound `Cc1ccc(NC(=O)c2csc(-c3ccc(N4CCCC4)nc3)n2)c(C)c1` has an RP-LC retention time of 813 s.
For `CC(C)NC(=O)CN1CCN(c2cc(C(=O)O)c3cc(NC(=O)c4ccccc4F)ccc3n2)CC1`, the RP-LC retention time was 594 s.
`Cc1cc(CN2CCC(CNC(=O)NCc3cccs3)CC2)c(C)o1` showed an RP-LC retention time of 578 s.
In the case of `COc1cccc(CNc2ncc(C(=O)O)c(C(C)C)n2)c1`, the RP-LC retention time is reported as 851 s.
`CCNC(=O)Nc1ccc2c(c1)CN(Cc1ccc(F)cc1F)CCO2` gave an RP-LC retention time of 611 s.
Work on `CCOC(=O)c1ccc(NC(=O)c2ccc3c(c2)N(C)C2CCCCN2C3=O)cc1` (stereo not drawn) yielded an RP-LC retention time of 896 s.
With `CC(C(=O)NCCCN1CCCCC1)n1c2ccccc2c2cnn(C)c(=O)c21` (stereo not drawn) the RP-LC retention time was 618 s.
In the case of `O=C1CC(C(F)(F)F)c2c(c(C(=O)O)cn2-c2ccccc2Cl)N1` (stereo not drawn), the RP-LC retention time is reported as 737 s.
In the case of `Cc1ccccc1Cn1c(CN2CCC(C(=O)NC3CCCCCCC3)CC2)cc2ccccc21`, the RP-LC retention time is reported as 934 s.
